Measurements reported in paper PMC6222422, “Synthesis and Biological Evaluation of Novel Indole-Derived Thioureas” (Molecules : A Journal of Synthetic Chemistry and Natural …, 2018).

Experiments:
[1] = system: HSV-1; experiment: microbe, parasite or virus in culture; format: cell-based, human herpes 1; conditions: Human alphaherpesvirus 1, Vero 76, read-out: HSV-1 EC50
[2] = in vitro; conditions: African green monkey (Cercopithecus aethiops)
[3] = system: VV; experiment: microbe, parasite or virus in culture; format: cell-based; conditions: Orthopoxvirus vaccinia, Vero 76, read-out: VV EC50
[4] = system: BVDV; experiment: microbe, parasite or virus in culture; format: cell-based, bovine viral diarrhoea virus; conditions: for EC50: Bovine viral diarrhea virus isolates and strains, MDBK, in Bos taurus, read-out: BVDV EC50
[5] = system: VSV; experiment: microbe, parasite or virus in culture; format: cell-based; conditions: Vesicular stomatitis virus, Vero 76, read-out: VSV EC50
[6] = in vitro; conditions: human
[7] = in vitro; conditions: cattle (Bos taurus)
[8] = system: CV-B5; experiment: microbe, parasite or virus in culture; format: cell-based, coxsackievirus B5; conditions: Enterovirus B, CVB5, Vero 76, read-out: CV-B5 EC50
[9] = system: HIV-1; experiment: microbe, parasite or virus in culture; conditions: Human immunodeficiency virus 1, MT4, read-out: HIV-1 EC50
[10] = system: MDBK cells
[11] = system: Reo-1; experiment: microbe, parasite or virus in culture; format: cell-based, reovirus type-1; conditions: for EC50: Reovirus sp., BHK, read-out: Reo-1 EC50
[12] = system: RSV; experiment: microbe, parasite or virus in culture; format: cell-based, human respiratory syncytial virus; conditions: for EC50: human respiratory syncytial virus, Vero 76, read-out: RSV EC50
[13] = in vitro; conditions: Syrian hamster (Mesocricetus auratus)
[14] = system: Sb-1; experiment: microbe, parasite or virus in culture; format: cell-based, poliovirus type-1; conditions: Enterovirus C, Vero 76, read-out: Sb-1 EC50
[15] = system: YFV; experiment: microbe, parasite or virus in culture; format: cell-based; conditions: Yellow fever virus, BHK, read-out: YFV EC50
[16] = system: BHK cells; conditions: Syrian hamster (Mesocricetus auratus)

SMILES	EC50 [1]	CC50 [2]	EC50 [3]	activity against BVDV (in words) [4]	EC50 [4]	EC50 [5]	CC50 [6]	CC50 [7]	EC50 [8]	EC50 [9]	cytotoxicity for MDBK cell lines (in words) [10]	EC50 [11]	activity against RSV (in words) [12]	EC50 [12]	CC50 [13]	EC50 [14]	EC50 [15]	CC50 [16]	activity against Reo-1 (in words) [11]
S=C(NCCc1ccccc1)NCCc1c[nH]c2ccccc12 [Compound 16, 1-(2-(1H-Indol-3-yl)ethyl)-3-phenethylthiourea]	> 100 µM	> 100 µM	> 100 µM	showed activity	46 µM	> 100 µM	49 µM	> 100 µM	18 ± 1.7 µM	> 49 µM	lack of cytotoxicity	> 18 µM	moderately active	30 ± 2.6 µM	18 µM	> 100 µM	> 18 µM	–	–
C=CCNC(=S)NCCc1c[nH]c2ccccc12 [Compound 18, 1-(2-(1H-Indol-3-yl)ethyl)-3-allylthiourea]	> 100 µM	> 100 µM	> 100 µM	–	> 100 µM	> 100 µM	> 100 µM	> 100 µM	> 100 µM	> 100 µM	–	61 µM	–	> 100 µM	> 100 µM	> 100 µM	> 100 µM	> 100 µM	not particularly significant
CCOC(=O)NC(=S)NCCc1c[nH]c2ccccc12 [Compound 20, 1-(2-(1H-Indol-3-yl)ethyl)-3-ethoxycarbonylthiourea]	> 100 µM	> 100 µM	> 100 µM	showed activity	35 ± 2.8 µM	> 100 µM	> 100 µM	> 100 µM	> 100 µM	> 100 µM	lack of cytotoxicity	> 100 µM	–	> 100 µM	> 100 µM	> 100 µM	> 100 µM	> 100 µM	–
